# In patent US20250388597A1, “BIFUNCTIONAL PHOTOCROSSLINKING PROBES FOR COVALENT CAPTURE OF PROTEIN-NUCLEIC ACID COMPLEXES IN CELLS” (UNIVERSITY OF SOUTHERN CALIFORNIA, priority 2022, published 2025):
# “Also recorded” adds a separate entry of the source.
# Tests used:
# NFAT1/DNA complex = target: T1, NFAT1/DNA complex (Homo sapiens, UniProt Q13469); test: In vitro photo-crosslinking of assembled NFAT1/DNA complex, denaturing SDS gel; type: biochemical
# T1 construct: human NFAT1 protein (residue 399-676, NFAT1-DBD)
# T1 sequence (Q13469 399-676): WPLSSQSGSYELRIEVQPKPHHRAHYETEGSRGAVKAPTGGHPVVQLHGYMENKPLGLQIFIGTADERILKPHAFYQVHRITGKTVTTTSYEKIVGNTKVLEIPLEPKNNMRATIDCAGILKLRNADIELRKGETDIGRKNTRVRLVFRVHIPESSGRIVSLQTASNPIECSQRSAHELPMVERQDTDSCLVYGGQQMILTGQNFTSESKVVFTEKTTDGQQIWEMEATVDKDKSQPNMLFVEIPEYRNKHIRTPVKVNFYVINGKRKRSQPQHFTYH
# Protocol: The probe binding and UV crosslinking were carried out as described in FIG. 5G and FIG. 7. The crosslinked complexes (lane 3 and lane 6) were further treated with DTT (100 mM, heat 50 degree C. for 30 min). The reaction mixtures were run on SDS gel and visualized by FAM fluorescence for DNA (top) and by Coomassie blue stain for protein (bottom) as described in FIG. 7. FIG. 7 depicts denaturing SDS gel analysis of covalent capture of in vitro assembled MEF2/DNA and NFAT1/DNA complexes by the BFPX probe, SPB-AAD. […] The protein/DNA complexes are incubated at room temperature for 30 min, and treated with various combination of BFPX probe (SPB-AAD) and UV illumination as described in FIG. 5G. […] The reaction mixtures were added SDS loading dye (2% SDS), boil for 10 min, and run on SDS gel (Bio-Rad Any Kd gradient gel). The same gel was visualized by FAM fluorescence for DNA (top) and by Coomassie blue stain for protein (bottom). FIG. 8C depicts denaturing SDS gel analysis of covalent capture of in vitro assembled MEF2/DNA and NFAT1/DNA complexes by the BFPX probe, SPB-PEG3-AAD. […] The reaction mixtures were run on SDS gel and visualized by FAM fluorescence for DNA (top) and by Coomassie blue stain for protein (bottom) as described in FIG. 7. […] Typically protein and DNA are mixed to bind at room temperature for 30 min, followed by addition of BFPX probes for an additional 15 min and then UV illumination. In the case of FA treatment, the reaction time is 10 min at room temperature and then quenched by 250 mM glycine. […] The UV illumination (as indicated by a positive sign) was carried out using a LED Chip (21.4 mm×21.4 mm, 365-370 nm, 30 Watt, sample distance 2 cm, exposure time 2-15 min at 4 degree C., here the exposure time is 15 min). […] The small amount of single stranded DNA is due to incomplete annealing. The higher smearing bands are most likely non-specific protein complexes. Neither of these experimental imperfections affected the main conclusion of this experiment because the double stranded-DNA bands and the specific NFAT-DNA complex bands (the middle sharp bands) are well defined and can be monitored without the interference of the other bands. […] The gel was visualized by Cy5 fluorescence for DNA. FIG. 12E depicts further characterization of BFPX crosslinking of NFAT1/DNA complexes using different DNA substrates and staining techniques. Two unlabeled DNA substrates containing a core NFAT-binding site and different flanking bases and sequence lengths ([…] ID NO: 4), 21 mer, c2: [NT] ID NO: 5), 16 mer) were used to bind the NFAT1-DBD as described in FIG. 12C. […] The reactions were then analyzed by SDS PAGE under denaturing condition as described in FIG. 12D. Because the DNA is unlabeled, the gel was stained using either cyanine-based dye (SYBR Safe) or Coomassie Blue stain (CB). […] The different size of the NFAT-c1DNA complexes (lane 2) and NFAT-c2DNA complexes (lane 4) was resolved by loading reactions of lane 2 (2a, 2b and 2c) and lane 4 (4a, 4b and 4c) as triplicates side-by-side on the same gel (lower panel) using either SYBR and CB stain. FIG. 12F depicts time course of BFPX crosslinking of NFAT1/DNA complexes. […] The reactions at different time points were then analyzed on SDS gel as described in FIG. 12D. […] When the UV exposure time is longer than 5 min, a significant amount of crosslinked NFAT-DNA complex can be formed with UV illumination without SPB-AAD.
# GM12878 cell lines = test: Crosslinking in suspension GM12878 cell lines, electrophoresis after sonication; type: cell-based; details: compared to the no-probe or no-UV controls; FIG. 5F
# Source text: For this, we tested the prototype BFPX probe 4AMT-LC-SDA in the suspension GM12878 cell lines.
# MEF2A/DNA complex = target: T2, MEF2A/DNA complex (Homo sapiens, UniProt Q02078); test: In vitro photo-crosslinking of assembled MEF2/DNA complex, read on denaturing SDS/urea gel or agarose gel; type: biochemical; details: for selectivity for DNA binding protein versus non-DNA binding protein BSA: BSA under the same condition; for formation of covalent MEF2/DNA crosslinked complex: probe + UV, denaturing gel
# T2 construct: human MEF2A DBD (residues 2-95); made in house
# T2 sequence (Q02078 2-95): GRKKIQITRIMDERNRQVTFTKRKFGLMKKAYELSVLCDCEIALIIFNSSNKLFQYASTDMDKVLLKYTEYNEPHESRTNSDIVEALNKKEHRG
# Source text: In vitro assays have confirmed the success and the efficiency of the demo probe (AMT-LC-SDA) in crosslinking double strand DNA of various contents and DNA-binding protein human myocyte enhancer factor 2A (MEF2A) (1-95 aa) (FIG. 5C-FIG. 5E). The solid crosslinking is confirmed for the probe with UV photo crosslinking conditions by denaturing or digestive approaches such as running with 8.3 M urea gel, SDS gel, combined with sample with overnight digestion of proteinase K at 65 Celsius and denatured at high temperature of 95 Celsius with SDS loading dye. […] Under these harsh evaluation conditions, the protein got digested on the crosslinking complex thoroughly, yet the remaining crosslinked amino acids residuals still have made the DNA to be in a larger size and shifted clearly compared to other controls, which is indicated by the bold shaped arrow. Agarose gel was also used for its bigger pore size to estimate the crosslinking efficiency (UV 2 hrs), estimated by the amount of the left free DNA, our probe has reached around 30-60% efficiency (FIG. 5E), which is much higher than the UV-initiated protein DNA crosslinking without the use of a probe (10-20%) as reported in Nature Communications, volume 11, Article number: 3019 (2020). […] This further supports the idea of applying this probe for replacement of formaldehyde, it crosslinks the protein only within the proximity of nucleic acids, thereby largely reducing the random protein-protein crosslinking noise and helps to preserve the native state of protein epitopes.
# The BFPX probe 4AMT-LC-SDA was synthesized with good yield by the NHS-amine chemistry using psoralen and diazirine derivatives (FIG. 5A, FIG. 5B). To test its photo crosslinking ability, human transcription factor MEF2A (the MADS-box/MEF2 domain) and double strand DNA containing a MEF2 binding site were used. We first used electrophoresis mobility shift assay (EMSA) to validate the activity of the purified recombinant MEF2A DNA-binding domain. After finding out the optimal protein to DNA ratio, the in vitro assembled MEF2/DNA complex was then subject to photocrosslinking in the presence or absence of the 4AMT-LC-SDA probe with or without UV illumination. Multiple other control experiments were carried out in parallel to test the specificity of photocrosslinking between the DNA and MEF2. Specifically, parameters such as protein/DNA amounts (1:[…]), ratio, UV time (10 m to 4 hrs), wavelength (320 to 360 nm), LV source (mercury long lamp, LED) and their distance to the reaction mixture have been optimized along the course. The MEF2 Protein and DNA were incubated first to mimic an in vivo binding mode and stoichiometry, and then the mixture was incubated with our 4AMT-LC-SDA probe to undergo UV illumination. The results were evaluated by running denaturing gels (SDS in FIG. 5D, or Urea in FIG. 5C) against the high temperature denatured reaction mixtures and checking the respective protein (silver stain) or DNA (FAM label) signals. To further rule out any other possible false positiveness during loading, proteinase K digestion was applied to all the samples including the negative controls with SDS at 65 degrees.
# DNA binding by NFAT1 = target: T3, DNA binding by NFAT1 (Homo sapiens, UniProt Q13469); test: Native EMSA of the effect on DNA binding by NFAT1; type: biochemical
# T3 construct: human NFAT1 protein (residue 399-676, NFAT1-DBD)
# T3 sequence (Q13469 399-676): T1 sequence (Q13469 399-676)
# Protocol: All binding reactions contain 10 μM 27 mer dsDNA (5′6-FAM labeled) with a NFAT-binding site, and various combinations of NFAT1 protein (14 μM), FA (1% v/v), 4AMT-LC-SDA (20 μM), with or without UV illumination (365 nm, LED, 30 Watt, sample distance 2 cm, exposure time 15 min at 4 degree C.). 10 μl of the binding reaction is run on a 10% PAGE 0.5×TBE gel. The same gel was visualized by FAM fluorescence for DNA (top) and by Coomassie blue stain for protein (bottom). The higher smearing bands in lane 3, 8, 9, and 10 are most likely non-specific protein complexes often seen when an excessive amount of protein is used to ensure all DNA is bound.
# The binding reactions were performed in a buffer of 20 mM Hepes pH 7.6, 150 mM NaCl, 1 mM DTT, 12% glycerol. Typically protein and DNA are mixed to bind at room temperature for 30 min, followed by addition of BFPX probes for an additional 15 min and then UV illumination. In the case of FA treatment, the reaction time is 10 min at room temperature and then quenched by 250 mM glycine. When included (as indicated by a positive sign), the binding reaction contains 10 μM 27 mer dsDNA (Cy5-labeled) with a NFAT-binding site (the antigen receptor response element 2, ARRE2, from the IL-2 promoter, 5′-Cy5-[sequence]-3′ (SEQ ID NO: 2), the complementary strand is not labeled), 24 μM of the DNA binding domain (DBD) of human NFAT1 protein (residue 399-676, NFAT1-DBD). The UV illumination (as indicated by a positive sign) was carried out using a LED Chip (21.4 mm×21.4 mm, 365-370 nm, 30 Watt, sample distance 2 cm, exposure time 2-15 min at 4 degree C., here the exposure time is 15 min). Half of the binding reaction (7.5 μl) was run on a 10% PAGE 0.5×TBE gel and visualized by Cy5 fluorescence on DNA. The small amount of single stranded DNA is due to incomplete annealing. The higher smearing bands are most likely non-specific protein complexes. Neither of these experimental imperfections affected the main conclusion of this experiment because the double stranded-DNA bands and the specific NFAT-DNA complex bands (the middle sharp bands) are well defined and can be monitored without the interference of the other bands.
# The presence of both DNA and protein in the same shifted band can be checked by the FAM fluorescence signal (top) and Coomassie stain (bottom), respectively (free NFAT is positively charged and not observable under the EMSA condition).
smiles,measurement,setting,value
Cc1oc2c(C)c3oc(=O)cc(C)c3cc2c1CNC(=O)CCCCCNC(=O)CCC1(C)N=N1 [4AMT-LC-SDA],effect of DTT treatment on the crosslinked NFAT-DNA complex,"NFAT1/DNA complex; 25 μM probe, DTT 100 mM, 50 degree C., 30 min, FIG. 5H",little effect
same,formation of covalent NFAT1/DNA crosslinked complex stable under denaturing SDS-PAGE,"NFAT1/DNA complex; probe + UV 365 nm, 2% SDS, boil 10 min",highly efficient crosslinking; also recorded: crosslinked NFAT to its DNA substrate efficiently
same,crosslink effect in cells,GM12878 cell lines,good crosslink effect
same,selectivity for DNA binding protein versus non-DNA binding protein BSA,MEF2A/DNA complex,did not show any signs of forming crosslink with the DNA
same,selectivity for DNA binding protein versus non-DNA binding protein BSA,MEF2A/DNA complex; listed as AMT-LC-SDA,only MEF2A sample shows consumption of DNA substrate by crosslinking
same,photo crosslinking efficiency of the MEF2-DNA complex,"MEF2A/DNA complex; agarose gel, comparison of band intensities",around 50%
same,"crosslinking efficiency, estimated by the amount of the left free DNA","MEF2A/DNA complex; agarose gel, UV 2 hrs, dsDNA + MEF2A (1-95 aa)",30-60%
same,formation of covalent MEF2/DNA crosslinked complex,MEF2A/DNA complex,successful photo crosslink complex between protein and DNA; also recorded: highly efficient crosslinking
same,formation of covalent MEF2/DNA crosslinked complex,MEF2A/DNA complex; listed as AMT-LC-SDA,the crosslinking of protein and nucleic acids takes place
same,effect on the DNA binding by NFAT1,"DNA binding by NFAT1; FIG. 5G, FA 1% v/v, 4AMT-LC-SDA 20 μM with or without UV 365 nm",did not affect
same,effect on NFAT1 protein,"DNA binding by NFAT1; with and without UV365, data not shown",did not affect NFAT1 protein
